This experiment deals with T1, SAMHD1_114-626 (Homo sapiens, UniProt Q9Y3Z3).
T1 construct: gene SAMHD1; purified recombinant residues 114-626 (HD domain and C-terminus, SAM domain removed); monomer without nucleotides, tetramer with GTP/dTTP
In words: 1H NMR dTTP hydrolysis rate versus GTP concentration. The experiment is classed as biochemical. From the text:
1H NMR dTTP hydrolysis rate versus GTP concentration on SAMHD1_114-626 | we determine the EC50^GTP (half-maximal effective concentration) and kcat

Broadly, the EC50 is the concentration that produces a half-maximal response. A lower EC50 goes with higher potency in that assay.

T1 sequence (Q9Y3Z3 114-626): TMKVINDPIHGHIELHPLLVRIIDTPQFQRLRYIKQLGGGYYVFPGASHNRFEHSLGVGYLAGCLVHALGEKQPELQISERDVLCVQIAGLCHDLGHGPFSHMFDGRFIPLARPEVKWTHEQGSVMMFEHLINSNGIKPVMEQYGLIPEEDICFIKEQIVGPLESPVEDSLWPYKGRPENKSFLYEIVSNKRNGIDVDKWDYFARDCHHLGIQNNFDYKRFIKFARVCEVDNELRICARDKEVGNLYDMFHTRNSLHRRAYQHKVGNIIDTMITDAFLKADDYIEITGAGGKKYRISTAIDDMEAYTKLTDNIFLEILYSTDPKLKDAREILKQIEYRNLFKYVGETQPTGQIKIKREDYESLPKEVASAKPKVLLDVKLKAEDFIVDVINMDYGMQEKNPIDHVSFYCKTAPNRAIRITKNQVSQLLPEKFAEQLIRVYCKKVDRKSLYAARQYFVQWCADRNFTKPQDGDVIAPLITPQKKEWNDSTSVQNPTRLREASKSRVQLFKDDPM

The compound `Nc1nc2c(ncn2[C@@H]2O[C@H](COP(=O)(O)OP(=O)(O)OP(=O)(O)O)[C@@H](O)[C@H]2O)c(=O)[nH]1` [GTP] registered a concentration for a half-maximal effect (EC50) of 1.7 µM.

The values are drawn from publication PMC11389391, “Acetylation of SAMHD1 at lysine 580 is crucial for blocking HIV-1 infection” (mBio, 2024).
